Reference: ChEMBL document CHEMBL5528025, “Design, synthesis and biological evaluation of carbamate derivatives incorporating multifunctional carrier scaffolds as pseudo-irreversible cholinesterase inhibitors for the treatment of Alzheimer's disease” (Eur J Med Chem, 2024)
pIC50: −log10 of the molar value. Calls of active or inactive are those of the source. The calls are words filed in the database; no cut-off is given here.

Assays:
Acetylcholinesterase [1] = molecular target: T1, Acetylcholinesterase (Homo sapiens, UniProt P22303)
T1 sequence (P22303 whole entry): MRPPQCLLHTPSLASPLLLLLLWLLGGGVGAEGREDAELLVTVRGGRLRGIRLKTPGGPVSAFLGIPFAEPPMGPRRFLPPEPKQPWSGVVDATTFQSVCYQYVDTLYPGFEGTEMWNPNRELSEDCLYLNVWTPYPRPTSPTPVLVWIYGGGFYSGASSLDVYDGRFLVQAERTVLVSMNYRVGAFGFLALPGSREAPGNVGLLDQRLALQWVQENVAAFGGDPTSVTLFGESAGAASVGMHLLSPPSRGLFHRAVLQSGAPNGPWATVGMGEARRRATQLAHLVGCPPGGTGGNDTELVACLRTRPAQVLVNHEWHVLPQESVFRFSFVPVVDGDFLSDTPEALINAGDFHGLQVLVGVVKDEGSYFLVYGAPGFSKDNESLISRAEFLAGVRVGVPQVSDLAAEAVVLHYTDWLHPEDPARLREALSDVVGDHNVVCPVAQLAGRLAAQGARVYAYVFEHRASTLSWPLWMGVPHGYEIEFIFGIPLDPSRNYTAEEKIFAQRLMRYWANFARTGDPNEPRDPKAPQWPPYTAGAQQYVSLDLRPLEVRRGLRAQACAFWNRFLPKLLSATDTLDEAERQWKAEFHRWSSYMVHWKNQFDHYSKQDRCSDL
Description: Inhibition of human erythrocyte AChE incubated for 10 mins

Cholinesterase [2] = molecular target: T2, Cholinesterase (Homo sapiens, UniProt P06276)
T2 sequence (P06276 whole entry): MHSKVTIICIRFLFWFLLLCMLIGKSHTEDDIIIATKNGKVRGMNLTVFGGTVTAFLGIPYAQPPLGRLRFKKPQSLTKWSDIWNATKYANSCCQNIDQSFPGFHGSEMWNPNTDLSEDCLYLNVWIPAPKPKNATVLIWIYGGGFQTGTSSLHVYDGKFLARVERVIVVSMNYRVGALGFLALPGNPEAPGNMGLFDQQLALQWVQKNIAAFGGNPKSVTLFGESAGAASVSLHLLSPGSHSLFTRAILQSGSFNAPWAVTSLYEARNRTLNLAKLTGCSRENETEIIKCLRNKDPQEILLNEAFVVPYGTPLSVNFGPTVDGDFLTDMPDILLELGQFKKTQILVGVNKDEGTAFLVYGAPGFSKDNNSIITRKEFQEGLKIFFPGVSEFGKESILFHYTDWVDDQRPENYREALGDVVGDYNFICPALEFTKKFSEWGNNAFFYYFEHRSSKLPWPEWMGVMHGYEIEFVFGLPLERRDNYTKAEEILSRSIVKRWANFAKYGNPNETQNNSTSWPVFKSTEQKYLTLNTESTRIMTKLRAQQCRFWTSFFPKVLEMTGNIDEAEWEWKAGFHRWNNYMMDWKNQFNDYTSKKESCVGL
Description: Inhibition of human serum BuChE using butyrylthiocholine iodide as substrate incubated for 10 mins followed by substrate addition and measured after 10 mins by DTNB reagent based Ellman's method

PC-12 [3] = test: (§1) Neuroprotective activity against H2O2-induced rat PC-12 cells assessed as protection against H2O2-induced apoptosis by measuring live cells at 10 uM pretreated for 1 hr followed by H2O2 addition and measured after 24 hrs by Annexin V-FITC/PI staining based flow cytometry analysis (reference value: 63.2%); assay type: functional; conditions: time 25 hrs
PC-12 [4] = test: as §1, with “late apoptotic” for “live”, “7.97%)” for “63.2%)”; assay type: functional; conditions: time 25 hrs
Acetylcholinesterase [5] = molecular target: T1, Acetylcholinesterase; test: Pseudo-irreversible inhibition of human erythrocyte AChE at 4 times IC50 preincubated for 20 mins followed by dialysis and measured after 12 hrs; assay type: cell-based
Cholinesterase [6] = molecular target: T2, Cholinesterase; test: Pseudo-irreversible inhibition of human serum BuChE using butyrylthiocholine iodide as substrate at 4 times IC50 preincubated for 20 mins followed by dialysis and measured after 12 hrs by DTNB reagent based Ellman's method
[7] = Cytotoxicity against rat PC-12 cells assessed as cell viability at 10 uM incubated for 24 hrs by CCK-8 assay relative to control; assay type: toxicity, cell-based; conditions: read-out: Activity
BV-2 = test: Cytotoxicity against mouse BV-2 cells assessed as reduction in cell viability at 5 uM incubated for 24 hrs by CCK-8 assay; assay type: toxicity, cell-based; conditions: bv-2, 24 h

`O=C(NCCCCCCNc1c2c(nc3cc(Br)ccc13)CCCC2)Oc1ccc(-c2cc3cccnc3[nH]2)cc1` gave a pIC50 (Acetylcholinesterase [1]) of 7.26 and a pIC50 (Cholinesterase [2]) of 6.26.

With `Oc1ccc(/C=C/c2cc(O)cc(O)c2)cc1` [RESVERATROL] the Activity (PC-12 [3]) was 87.3% and the Activity (PC-12 [4]) was 1.4%.

For `O=C(NCCCCNc1c2c(nc3ccccc13)CCCC2)Oc1ccc2cc[nH]c2c1`, the pIC50 (Acetylcholinesterase [1]) was 6.29 and the pIC50 (Cholinesterase [2]) was 8.87.

For `CCN(C)C(=O)Oc1cccc([C@H](C)N(C)C)c1`, the inhibition (Acetylcholinesterase [5]) was “Active” and the inhibition (Cholinesterase [6]) was “Active”.

In the case of `O=C(NCCCCCNc1c2c(nc3cc(Cl)ccc13)CCCC2)Oc1ccc2cc[nH]c2c1`, the viability at 24 h, 10 µM [7] was > 90%, the Activity (BV-2) was “Toxic” and the pIC50 (Acetylcholinesterase [1]) was 6.61. The pIC50 (Cholinesterase [2]) was 7.31.

For `O=C(NCCCCCNc1c2c(nc3ccccc13)CCCC2)Oc1ccc2cc[nH]c2c1`, the pIC50 (Acetylcholinesterase [1]) was 6.38 and the pIC50 (Cholinesterase [2]) was 7.63.

Molecule `O=C(NCCCCCCNc1c2c(nc3cc(Cl)ccc13)CCCC2)Oc1ccc(-c2cc3cccnc3[nH]2)cc1` has a pIC50 (Acetylcholinesterase [1]) of 7.19 and a pIC50 (Cholinesterase [2]) of 6.55.

With `C[C@@H](c1cccc(OC(=O)NCCCCCCNc2c3c(nc4ccccc24)CCCC3)c1)N(C)C` the pIC50 (Acetylcholinesterase [1]) was 6.93 and the pIC50 (Cholinesterase [2]) was 7.83.

`O=C(NCCCCCNc1c2c(nc3cc(Br)ccc13)CCCC2)Oc1ccc2cc[nH]c2c1` showed a pIC50 (Acetylcholinesterase [1]) of 6.50 and a pIC50 (Cholinesterase [2]) of 7.37.

With `C[C@@H](c1cccc(OC(=O)NCCCCCCNc2c3c(nc4cc(Br)ccc24)CCCC3)c1)N(C)C` the pIC50 (Acetylcholinesterase [1]) was 7.25 and the pIC50 (Cholinesterase [2]) was 8.02.

With `O=C(NCCCCCNc1c2c(nc3cc(Cl)ccc13)CCCC2)Oc1ccc(-c2cc3cccnc3[nH]2)cc1` the pIC50 (Acetylcholinesterase [1]) was 7.64 and the pIC50 (Cholinesterase [2]) was 5.78.

In the case of `O=C(NCCCNc1c2c(nc3ccccc13)CCCC2)Oc1ccc(-c2cc3cccnc3[nH]2)cc1`, the viability at 24 h, 10 µM [7] was > 90%, the pIC50 (Acetylcholinesterase [1]) was 6.63 and the pIC50 (Cholinesterase [2]) was 7.79.

Molecule `C[C@@H](c1cccc(OC(=O)NCCCCCNc2c3c(nc4ccccc24)CCCC3)c1)N(C)C` has a pIC50 (Acetylcholinesterase [1]) of 6.93 and a pIC50 (Cholinesterase [2]) of 7.92.

With `C[C@@H](c1cccc(OC(=O)NCCCCNc2c3c(nc4ccccc24)CCCC3)c1)N(C)C` the pIC50 (Acetylcholinesterase [1]) was 6.53 and the pIC50 (Cholinesterase [2]) was 7.36.

In the case of `O=C(NCCCCCCNc1c2c(nc3cc(F)ccc13)CCCC2)Oc1ccc2cc[nH]c2c1`, the pIC50 (Acetylcholinesterase [1]) was 6.53 and the pIC50 (Cholinesterase [2]) was 7.37.

With `O=C(NCCNc1c2c(nc3ccccc13)CCCC2)Oc1ccc(-c2cc3cccnc3[nH]2)cc1` the pIC50 (Acetylcholinesterase [1]) was < 5.00 and the pIC50 (Cholinesterase [2]) was 7.28.

`C[C@@H](c1cccc(OC(=O)NCCCCCNc2c3c(nc4cc(Cl)ccc24)CCCC3)c1)N(C)C` gave a pIC50 (Acetylcholinesterase [1]) of 8.08 and a pIC50 (Cholinesterase [2]) of 7.57.

Molecule `C[C@@H](c1cccc(OC(=O)NCCCCCNc2c3c(nc4cc(F)ccc24)CCCC3)c1)N(C)C` has a pIC50 (Acetylcholinesterase [1]) of 7.42 and a pIC50 (Cholinesterase [2]) of 6.86.
